Consider one compound from patent US20120184590A1, “FORMULATIONS OF INDOLE-3-CARBINOL DERIVED ANTITUMOR AGENTS WITH INCREASED ORAL BIOAVAILABILITY” (UNIVERSITY OF KANSAS, priority 2009, published 2012).

Data set [1] is described as follows: Oral bioavailability of PEG400:Labrasol formulation in rats. Conditions: rat, in vivo.
The nature of data set [2]: Time for syringe dosage forms to dissolve in warm water. The format is physicochemical. Conditions: shaken in warm water (approximately 40° C.). The protocol:
A similar set of sample tubes was prepared for a monkey study. Twenty-eight tubes with 11.2±0.1 g of 5 mg/g SR13668 in Solutol were prepared providing a dose of 56 mg SR13668 per tube. A set of 3-mL disposable plastic syringes were prepared containing a 5 mg dose of SR13668 in either Solutol, Vit E TPGS or 1:1 Solutol:Vit E TPGS. The syringes were prepared so the dosage form could be pushed out and dissolved in warm water to administer to monkeys by gavage. The syringes were prepared by (a) cutting off the tip-end at the 0.1 mL mark of a plastic, disposable 3-mL syringe, (b) pulling back the plunger, (c) filling the syringe by weight with the liquid melt at 65° C. to give the correct dosage and (d) allowing the formulation to harden. Each formulation contained between 3.5-4.2 mg SR13668/g matrix and approximately 1.2 g of the formulation was needed in each syringe to give a 5 mg dose. The syringes were fairly easy to make and to expel the dosage form into warm water. The doses where shaken in warm water (approximately 40° C.) and took the following amounts of time to dissolve: <1 min. for Solutol, 15 min for 1:1 Solutol:Vit E TPGS, and 37 min for Vit E TPGS.

For data set [3] the following is noted: Green C., unpublished results; cited from earlier work.
Data set [4] in a line: Clinical observations and clinical pathology in dogs. The format is in vivo, beagle dogs. Conditions: for ALT / AST / LDH: day 2 following a single dose. The protocol:
For both species, each animal was part of each experimental group, with a 7-day interval between treatments to allow for washout of the dosing formulation and its effects. Dosing formulations of SR13668 were administered by oral gavage (intragastric) or intravenous (i.v.) injection as a single dose or once daily for seven consecutive days. Oral to doses were administered at a dosing volume of 5 mL/kg of body weight, while intravenous doses were administered at a dosing volume of 0.5 mL/kg of body weight. Dogs were dosed with 93.6 mg/m^2 SR13668 intravenously in DMSO:PEG300 15:85 (v/v) or orally in Solutol® vehicle (two groups, fed and after an overnight fast). Monkeys were dosed with 84.2 mg/m^2 SR13668 intravenously in DMSO:PEG300 15:85 (v/v) or orally (336.7 mg/m^2 SR13668 for the oral high dose group) in PEG400:Labrasol® 1:1 (v/v) or Solutol® vehicles. Vehicle control groups were used to assess the tolerability of the vehicle and for clinical pathology evaluations.
At the end of each dosing period, the animals were examined for detailed clinical signs and symptoms (i.e., alterations of teeth, nose, eyes, perineum, pelage and body orifices; changes in appearance or behavior) and/or presence of any tissue masses. Body weights were recorded prior to treatment and daily during each testing interval. Quantitative (grams/day) food consumption data were recorded for dogs on a daily basis during each testing interval. Qualitative food consumption observations were recorded for monkeys on a daily basis during each testing interval. Blood samples for clinical pathology (clinical chemistry, hematology, and coagulation) parameter evaluation were collected from dogs and monkeys prior to dosing and on Days 2 and 8 post-dose, as well as from monkeys on Days 15 and 30 post-dose.

Where [5] appears, read: 93.6 mg/m^2 (4.68 mg/kg) iv, DMSO:PEG300 15:85 v/v, fed.
Setting [6] is: 93.6 mg/m^2 (4.68 mg/kg) oral gavage, Solutol, fasted.
[7] abbreviates: 93.6 mg/m^2 (4.68 mg/kg) oral gavage, Solutol, fed.

“Also recorded” adds a separate entry of the source. Marks after values point to notes of the source that are not given here.

For `CCOC(=O)c1ccc2[nH]c3c(OC)c4[nH]c5ccc(C(=O)OCC)cc5c4cc3c2c1` [SR13668, 2,10-dicarbethoxy-6-methoxy-5,7-dihydro-indolo-(2,3-b)carbazole], the bioavailability in data set [1] is below 1%. This compound also came in with a time to dissolve in data set [2] (5 mg dose of SR13668 in 1:1 Solutol:Vit E TPGS) of 15 min. The same compound had a time to dissolve in data set [2] (5 mg dose of SR13668 in Solutol) below 1 min. The time to dissolve in data set [2] (5 mg dose of SR13668 in Vit E TPGS) is given as 37 min. Besides, the “metabolism in rat microsomes” value in data set [3] is on record as “slow metabolism”. Further, in data set [4], the “adverse treatment-related clinical observations” value was “vomiting in fasted dogs”; the “effects on body weights, body weight gains or food consumption” value is “No significant treatment-related effects on body weights, body weight gains or food consumption”; the “effects on clinical pathology (clinical chemistry, hematology, coagulation)” value was “did not cause untoward hematology, clinical chemistry, or coagulation effects; also recorded: No treatment-related effects on any clinical pathology variables”; the mortality or morbidity entry is on record as “no mortalities or morbidity”. Moreover, in data set [4] (setting [5]), the ALT was 41.8 ± 5.4 IU/L, the AST worked out at 30.8 ± 5.2 IU/L and the LDH is given as 54.8 ± 23 ^c IU/L. Moreover, in data set [4] (setting [6]), the ALT is 44.8 ± 10 IU/L, the AST is on record as 30.8 ± 7.2 IU/L and the LDH is reported as 56.3 ± 9.4 IU/L. Further, in data set [4] (setting [7]), the ALT came to 39.5 ± 4.7 IU/L, the AST is on record as 29.3 ± 3.6 IU/L and the LDH was 30.3 ± 6.2 ^c IU/L.
